According to patent US10150734B2, “Solid forms of 2-(5-(3-fluorophenyl)-3-hydroxypicolinamido)acetic acid, compositions, and uses thereof” (Akebia Therapeutics, Inc., priority 2015, dated 2018):

Assay: Competitive slurry experiment of Forms A to H
Type: physicochemical
Conditions: IPAc/Heptane or toluene, RT
Experimental: Approximately 2 to 3 mg of materials from Forms A to H were weighed into a 20.0 mL clear vial equipped with magnetic stir bars (Table 13). IPAc/Heptane (1:2 V/V) and toluene were used as the solvent systems for these competitive slurry experiments. Two selected solvents, 1.0 mL, were added to achieve free-flowing slurry and allowed to equilibrate at room temperature. All slurries will be isolated via centrifuge filtration after one day and seven days of equilibration.

O=C(O)CNC(=O)c1ncc(-c2cccc(F)c2)cc1O [Form B, 2-(5-(3-fluorophenyl)-3-hydroxypicolinamido)acetic acid]
Outcome in the competitive slurry experiment (in words): converted to Form A
